Data reported in patent publication US8518964B2, “Tricyclic compounds useful as inhibitors of kinases” (Merck Sharp & Dohme Corp., priority 2006, dated 2013).

Target: T1, IKKβ (Homo sapiens, UniProt O14920)
T1 construct: His; made in house; host or cells: SF9 insect cells (baculovirus, pVL1393 transfer vector)
T1 sequence (O14920 1-756): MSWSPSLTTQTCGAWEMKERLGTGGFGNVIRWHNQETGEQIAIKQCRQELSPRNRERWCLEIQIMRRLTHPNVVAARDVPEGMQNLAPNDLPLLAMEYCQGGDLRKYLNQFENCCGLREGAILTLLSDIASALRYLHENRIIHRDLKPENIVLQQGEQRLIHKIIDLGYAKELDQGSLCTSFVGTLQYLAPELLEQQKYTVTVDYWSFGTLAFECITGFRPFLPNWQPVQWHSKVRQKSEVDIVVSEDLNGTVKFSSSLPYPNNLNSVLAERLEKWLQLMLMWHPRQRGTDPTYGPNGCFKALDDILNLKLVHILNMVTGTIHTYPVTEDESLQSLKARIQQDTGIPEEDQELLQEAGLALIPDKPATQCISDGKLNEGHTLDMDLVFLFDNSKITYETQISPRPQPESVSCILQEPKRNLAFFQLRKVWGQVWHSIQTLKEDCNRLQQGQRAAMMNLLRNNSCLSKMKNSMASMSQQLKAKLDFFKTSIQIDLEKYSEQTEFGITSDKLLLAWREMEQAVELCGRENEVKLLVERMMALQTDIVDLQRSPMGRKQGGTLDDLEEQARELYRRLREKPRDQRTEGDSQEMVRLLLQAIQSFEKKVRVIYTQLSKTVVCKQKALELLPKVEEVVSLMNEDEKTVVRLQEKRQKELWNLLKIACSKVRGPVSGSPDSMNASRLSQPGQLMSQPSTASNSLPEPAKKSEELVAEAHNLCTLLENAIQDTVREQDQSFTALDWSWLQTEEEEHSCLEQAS
Test: Homogenous Time Resolved Fluorescence (HTRF) assay for IKK inhibitory activity
Format: biochemical
Settings: read-out: IKKβIC50
Excerpt: Homogenous Time Resolved Fluorescence (HTRF) Assay for IKK Inhibitory Activity.
This enzyme assay monitors the inhibitory potency of the compounds of Formula I and II to block the catalytic activity of IKKα and IKKβ in vitro. The full-length coding sequences of IKKα and IKKβ are subcloned into the appropriate site of pVL1393 (Pharmingen) to construct a baculovirus transfer vector. Recombinant baculovirus was generated from vector-transfected SF9 cells (BaculoGold™, Invitrogen), cloned, amplified and used to infect SF9 cells for protein production. Recombinant His-tagged IKKα and IKKβ are isolated from the Baculovirus-infected SF9 cells expressing the fusion protein.
An HTRF assay in a 384-well format established on a Biomek FX is used to test the inhibitory activity of compounds of Formula I. The peptide substrate, biotin-DRHDSGLDSMKDE (SEQ. ID.: 1) used to assay IKKβ activity spans residues 28 to 40 of IκBα and was custom synthesized (Synpep). A biotinylated peptide that spans residues 21 to 40 of Iκbα, […] (SEQ. ID.: 2), was used as substrate for IKKα. The assay conditions used to test inhibitory activity of compounds against IKKβ comprises 110 nM recombinant enzyme, 150 nM peptide substrate, 6 μM ATP, 10% (v/v) DMSO, 15 mM MgCl2, 2 mM DTT, and 50 mM Tris/HCl at a pH of 7.5. For IKKα, the reaction mixture comprises 125 nM recombinant enzyme, 400 nM peptide substrate, 6 μM ATP, 10% (v/v) DMSO, 15 mM MgCl2, 2 mM DTT, and 50 mM Tris/HCl at a pH of 7.5. The kinase reaction proceeds for 20 and 35 min for IKKα and IKKβ respectively and then it is quenched by the addition of EDTA to a final concentration of 20 mM. Following completion of the kinase assay, 5 μL of the reaction is quantified by HTRF with a 5 μL detection mix comprising 40 mM HEPES, 100 mM KF, 27.7 nM Streptavidin-tagged-XL665-XLent (CIS-Bio international), 0.3 nM anti-phospho-IκBα mAb (Cell signaling), 1 nM anti-phospho peptide antibody conjugated to Eu (CIS-Bio international). Following excitation at 330 nm, the 665 nm/615 nm emission ratio is measured after a 2-hour incubation at room temperature to quantify the FRET signal.

`NC(=O)c1cnc(N)c2c1[nH]c1ccc(F)cc12` [Example 6, 1-Amino-8-fluoro-5H-pyrido[4,3-b]indole-4-carboxamide] and `NC(=O)c1cnc(N)c2c1[nH]c1ccc(Br)cc12` [Example 11, 1-Amino-8-bromo-5H-pyrido[4,3-b]indole-4-carboxamide] cannot be ordered by IC50: ≤ 1000 nM for the first, ≤ 1000 nM for the second.

`CN(C)Cc1ccc(-c2ccc3c(c2)sc2c(C(N)=O)cnc(N)c23)cc1` [Example 21, 1-Amino-7-{4-[(dimethylamino)methyl]phenyl}[1]benzothieno[3,2-c]pyridine-4-carboxamide] and `NC(=O)c1cnc(N)c2c1sc1cc(/C=C/c3ccc(F)cc3)ccc12` [Example 16, 1-Amino-7-[(E)-2-(4-fluorophenyl)vinyl][1]benzothieno[3,2-c]pyridine-4-carboxamide] cannot be ordered by IC50: ≤ 500 nM for the first, ≤ 500 nM for the second.

`NC(=O)c1cnc(N)c2c1[nH]c1c(Cl)cccc12` [Example 25, 1-Amino-6-chloro-5H-pyrido[4,3-b]indole-4-carboxamide] and `NC(=O)c1cnc(N)c2c1sc1c(Cl)cccc12` [Example 3, 1-Amino-6-chloro[1]benzothieno[3,2-c]pyridine-4-carboxamide] cannot be ordered by IC50: ≤ 100 nM for the first, ≤ 1000 nM for the second.

`NC(=O)c1cnc(N)c2c1[nH]c1cc(C(F)(F)F)ccc12` [Example 5, 1-Amino-7-(trifluoromethyl)-5H-pyrido[4,3-b]indole-4-carboxamide] and `CCCCNc1ncc(C(N)=O)c2[nH]c3ccc(F)cc3c12` [Example 8, 1-(Butylamino)-8-fluoro-5H-pyrido[4,3-b]indole-4-carboxamide] cannot be ordered by IC50: ≤ 100 nM for the first, ≤ 1000 nM for the second.

`NC(=O)c1cnc(N)c2c1sc1c(-c3ccccc3)cccc12` [Example 4, 1-Amino-6-phenyl[1]benzothieno[3,2-c]pyridine-4-carboxamide] and `NC(=O)c1cnc(N2CCC3(CC2)OCc2ccccc23)c2c1[nH]c1ccc(F)cc12` [Example 9, 8-Fluoro-1-(1′H,3H-spiro[2-benzofuran-1,4′-piperidin]-1′-yl)-5H-pyrido[4,3-b]indole-4-carboxamide] cannot be ordered by IC50: ≤ 1000 nM for the first, ≤ 500 nM for the second.
